Laboratory results as given in patent US11174268B2, “Benzenesulfonamide compouds and their use as therapeutic agents” (Xenon Pharmaceuticals Inc., priority 2016, dated 2021).

Legend:
[1] = molecular target: T1, NaV1.1 (Homo sapiens (Human), UniProt P35498); assay: Sodium Influx Assay (Flux), NaV1.1; format: cell-based; conditions: Trex HEK293 cells, ANG2 dye, inactivated state;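 further: channels co-expressed with human β1 subunit and held open by modulators, cells exposed to compounds for one hour at room temperature, IC50 from percent inhibition of influx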
[2] = molecular target: NaV1.5 (Homo sapiens (Human), UniProt Q14524); assay: Sodium Influx Assay (Flux), NaV1.5; conditions: read-out: Flux NaV1.5 IC50; Trex HEK293 cells, ANG2 dye, inactivated state
[3] = molecular target: T2, NaV1.6 (Homo sapiens (Human), UniProt Q9UQD0); assay: Sodium Influx Assay (Flux), NaV1.6; format: cell-based; conditions: Trex HEK293 cells, ANG2 dye, inactivated state;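 further: Tetracycline-induced cells, compounds applied for one hour at room temperature with modulators holding channels open, IC50 from percent inhibition of sodium influx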
[4] = molecular target: T1, NaV1.1; assay: Electrophysiological Assay (EP), patch voltage clamp, NaV1.1; format: cell-based; conditions: HEK-293 cells, whole-cell patch clamp;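 further: sodium current block measured at ambient temperature, holding at fully inactivating potential, 20 ms repolarization to −150 mV before test pulse, versus 0.5% DMSO control currents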
[5] = molecular target: T2, NaV1.6; assay: Electrophysiological Assay (EP), patch voltage clamp, NaV1.6; format: cell-based; conditions: HEK-293 cells, whole-cell patch clamp;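 further: sodium current recorded at ambient temperature, channels held inactivated then briefly repolarized to −150 mV for 20 ms before a test pulse, control currents in 0.5% DMSO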

NaV1.5, sequence (Q14524 other isoform, or with tags, fused parts or gaps): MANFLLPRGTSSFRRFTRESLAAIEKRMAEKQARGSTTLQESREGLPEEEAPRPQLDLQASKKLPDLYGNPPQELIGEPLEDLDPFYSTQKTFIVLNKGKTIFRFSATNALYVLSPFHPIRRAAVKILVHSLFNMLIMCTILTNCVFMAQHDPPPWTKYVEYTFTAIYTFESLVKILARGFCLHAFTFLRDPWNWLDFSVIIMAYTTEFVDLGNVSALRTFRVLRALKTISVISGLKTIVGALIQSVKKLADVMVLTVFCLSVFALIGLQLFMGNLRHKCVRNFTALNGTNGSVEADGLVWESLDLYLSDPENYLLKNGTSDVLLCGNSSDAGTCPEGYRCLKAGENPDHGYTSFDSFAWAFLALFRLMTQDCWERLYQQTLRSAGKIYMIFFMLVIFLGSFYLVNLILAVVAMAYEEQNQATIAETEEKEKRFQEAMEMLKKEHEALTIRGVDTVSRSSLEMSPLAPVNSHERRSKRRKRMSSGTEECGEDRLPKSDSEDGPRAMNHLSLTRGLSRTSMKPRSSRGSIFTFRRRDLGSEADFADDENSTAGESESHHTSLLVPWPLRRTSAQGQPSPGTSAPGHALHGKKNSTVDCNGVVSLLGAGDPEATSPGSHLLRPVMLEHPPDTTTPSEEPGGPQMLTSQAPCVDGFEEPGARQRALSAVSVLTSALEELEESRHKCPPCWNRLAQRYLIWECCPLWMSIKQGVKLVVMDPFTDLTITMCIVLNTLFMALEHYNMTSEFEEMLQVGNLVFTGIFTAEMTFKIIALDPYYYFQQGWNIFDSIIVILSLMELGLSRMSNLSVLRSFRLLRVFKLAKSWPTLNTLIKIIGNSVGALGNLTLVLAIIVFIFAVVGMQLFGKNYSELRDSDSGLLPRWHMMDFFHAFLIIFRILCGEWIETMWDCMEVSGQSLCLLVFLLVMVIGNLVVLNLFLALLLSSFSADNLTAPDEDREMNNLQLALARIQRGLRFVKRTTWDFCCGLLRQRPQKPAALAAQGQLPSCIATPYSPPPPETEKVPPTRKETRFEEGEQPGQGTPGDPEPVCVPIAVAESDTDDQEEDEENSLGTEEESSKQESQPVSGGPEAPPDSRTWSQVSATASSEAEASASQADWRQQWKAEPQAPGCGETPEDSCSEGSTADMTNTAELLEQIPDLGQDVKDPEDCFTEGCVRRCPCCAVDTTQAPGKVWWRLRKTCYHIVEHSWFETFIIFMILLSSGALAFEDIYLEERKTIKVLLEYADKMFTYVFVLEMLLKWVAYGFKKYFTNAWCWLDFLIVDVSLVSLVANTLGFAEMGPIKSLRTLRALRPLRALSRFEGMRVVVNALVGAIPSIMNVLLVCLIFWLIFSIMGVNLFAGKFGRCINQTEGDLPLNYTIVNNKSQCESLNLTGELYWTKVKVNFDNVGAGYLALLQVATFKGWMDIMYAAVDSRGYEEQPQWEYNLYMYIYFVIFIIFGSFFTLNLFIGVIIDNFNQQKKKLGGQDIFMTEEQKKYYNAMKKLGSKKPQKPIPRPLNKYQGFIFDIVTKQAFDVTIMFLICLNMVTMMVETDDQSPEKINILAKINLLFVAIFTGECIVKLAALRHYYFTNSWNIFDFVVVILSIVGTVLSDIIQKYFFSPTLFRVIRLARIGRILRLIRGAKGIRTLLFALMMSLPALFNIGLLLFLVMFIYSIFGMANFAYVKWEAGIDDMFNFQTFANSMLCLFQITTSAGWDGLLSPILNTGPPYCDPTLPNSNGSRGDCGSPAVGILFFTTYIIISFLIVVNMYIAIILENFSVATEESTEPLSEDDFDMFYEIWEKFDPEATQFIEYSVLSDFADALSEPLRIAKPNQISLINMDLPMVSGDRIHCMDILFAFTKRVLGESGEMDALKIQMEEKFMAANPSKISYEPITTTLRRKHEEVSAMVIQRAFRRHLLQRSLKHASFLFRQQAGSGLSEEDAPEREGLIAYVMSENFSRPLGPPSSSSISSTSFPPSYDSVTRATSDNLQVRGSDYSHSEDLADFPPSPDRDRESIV
T2 sequence (Q9UQD0 whole entry): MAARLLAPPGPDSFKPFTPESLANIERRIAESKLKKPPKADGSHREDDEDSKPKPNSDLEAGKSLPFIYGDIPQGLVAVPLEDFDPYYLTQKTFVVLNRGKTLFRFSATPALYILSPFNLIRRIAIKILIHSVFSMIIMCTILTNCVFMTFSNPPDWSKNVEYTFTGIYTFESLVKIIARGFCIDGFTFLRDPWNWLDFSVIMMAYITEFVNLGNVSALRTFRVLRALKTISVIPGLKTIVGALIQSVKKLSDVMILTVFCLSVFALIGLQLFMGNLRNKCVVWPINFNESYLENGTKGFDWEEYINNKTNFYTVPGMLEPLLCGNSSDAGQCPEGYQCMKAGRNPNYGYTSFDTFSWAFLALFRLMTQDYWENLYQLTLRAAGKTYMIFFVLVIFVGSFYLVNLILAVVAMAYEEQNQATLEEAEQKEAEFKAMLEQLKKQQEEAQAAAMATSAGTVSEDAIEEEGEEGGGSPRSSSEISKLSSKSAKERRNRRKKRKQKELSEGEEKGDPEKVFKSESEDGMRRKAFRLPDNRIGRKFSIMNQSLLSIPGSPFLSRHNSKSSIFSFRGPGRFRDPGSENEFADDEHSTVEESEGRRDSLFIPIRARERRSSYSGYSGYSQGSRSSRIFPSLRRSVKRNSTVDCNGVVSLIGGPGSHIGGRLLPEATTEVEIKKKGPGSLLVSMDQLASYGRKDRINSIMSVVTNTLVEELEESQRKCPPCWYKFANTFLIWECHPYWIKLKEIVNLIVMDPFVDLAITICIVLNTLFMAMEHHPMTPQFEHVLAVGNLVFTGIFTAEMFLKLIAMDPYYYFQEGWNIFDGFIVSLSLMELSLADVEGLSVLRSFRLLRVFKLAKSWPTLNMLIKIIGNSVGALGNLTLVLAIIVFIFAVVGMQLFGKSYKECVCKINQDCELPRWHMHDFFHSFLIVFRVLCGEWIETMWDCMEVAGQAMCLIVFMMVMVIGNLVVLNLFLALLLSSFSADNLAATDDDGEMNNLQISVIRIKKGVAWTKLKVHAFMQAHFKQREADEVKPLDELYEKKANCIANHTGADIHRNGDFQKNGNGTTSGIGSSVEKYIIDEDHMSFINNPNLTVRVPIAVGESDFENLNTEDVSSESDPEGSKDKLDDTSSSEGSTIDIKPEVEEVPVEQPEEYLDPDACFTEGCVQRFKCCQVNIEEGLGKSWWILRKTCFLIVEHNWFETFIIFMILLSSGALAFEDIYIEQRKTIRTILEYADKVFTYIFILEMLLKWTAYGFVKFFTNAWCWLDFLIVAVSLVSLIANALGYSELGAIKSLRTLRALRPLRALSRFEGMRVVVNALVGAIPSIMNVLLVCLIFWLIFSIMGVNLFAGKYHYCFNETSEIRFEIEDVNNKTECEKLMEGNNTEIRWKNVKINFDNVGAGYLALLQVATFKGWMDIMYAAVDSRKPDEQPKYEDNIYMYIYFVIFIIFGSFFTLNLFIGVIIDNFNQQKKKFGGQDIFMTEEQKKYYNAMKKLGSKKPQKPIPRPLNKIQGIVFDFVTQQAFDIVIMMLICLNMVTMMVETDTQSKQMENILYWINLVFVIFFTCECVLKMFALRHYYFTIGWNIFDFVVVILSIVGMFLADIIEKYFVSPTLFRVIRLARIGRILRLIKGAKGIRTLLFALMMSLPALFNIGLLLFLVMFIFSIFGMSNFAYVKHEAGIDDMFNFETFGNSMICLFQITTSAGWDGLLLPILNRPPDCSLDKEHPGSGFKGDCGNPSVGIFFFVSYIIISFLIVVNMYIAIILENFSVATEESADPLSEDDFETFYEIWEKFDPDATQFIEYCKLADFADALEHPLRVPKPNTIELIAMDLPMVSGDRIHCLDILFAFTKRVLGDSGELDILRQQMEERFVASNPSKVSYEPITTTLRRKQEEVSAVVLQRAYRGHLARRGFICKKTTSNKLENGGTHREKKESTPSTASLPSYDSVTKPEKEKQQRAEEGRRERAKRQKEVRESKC

Row | SMILES | IC50 [1] [nM] | IC50 [2] [nM] | IC50 [3] [nM] | IC50 [4] [nM] | IC50 [5] [nM]
1 | C[C@H](Nc1ccc(S(=O)(=O)Nc2nccs2)c(F)c1Cl)c1ccccc1F [Example 9, (S)-3-chloro-2-fluoro-4-((1-(2-fluorophenyl)ethyl)amino)-N-(thiazol-2-yl)benzenesulfonamide] | 2360 | 4220 | 181 | 4340 | 26
2 | C[C@H](Oc1ccc(S(=O)(=O)Nc2nccs2)c(F)c1Cl)c1ccccc1F [Example 10, (S)-3-chloro-2-fluoro-4-(1-(2-fluorophenyl)ethoxy)-N-(thiazol-2-yl)benzenesulfonamide] | 1630 | 2350 | 461 | 5470 | 128
3 | O=S(=O)(Nc1nccs1)c1cc(Cl)c(OCc2cccc3ccncc23)cc1F [Example 11, 5-chloro-2-fluoro-4-(isoquinolin-8-ylmethoxy)-N-(thiazol-2-yl)benzenesulfonamide] | 30000 | 30000 | 255 | 10000 | 34
4 | O=S(=O)(Nc1nccs1)c1cc(Cl)c(NCc2ccccc2CN2CCC2)cc1F [Example 16, 4-((2-(azetidin-1-ylmethyl)benzyl)amino)-5-chloro-2-fluoro-N-(thiazol-2-yl)benzenesulfonamide 2,2,2-trifluoroacetate] | 5410 | 23500 | 29 | 2190 | 4
5 | O=S(=O)(Nc1cscn1)c1cc(Cl)c(NCc2ccccc2CN2CCC2)cc1F [Example 19, 4-((2-(azetidin-1-ylmethyl)benzyl)amino)-5-chloro-2-fluoro-N-(thiazol-4-yl)benzenesulfonamide 2,2,2-trifluoroacetate] | 11700 | 18500 | 425 | 10000 | 130
6 | O=S(=O)(Nc1cscn1)c1cc(Cl)c(NC2(c3ccccc3)CC2)cc1F [Example 20, 5-chloro-2-fluoro-4-((1-phenylcyclopropyl)amino)-N-(thiazol-4-yl)benzenesulfonamide] | 30000 | 30000 | 2050 | 10000 | 1180
7 | C[C@H](Nc1cc(F)c(S(=O)(=O)Nc2cccc(F)n2)cc1Cl)c1ccccc1F [Example 22, (S)-5-chloro-2-fluoro-4-((1-(2-fluorophenyl)ethyl)amino)-N-(6-fluoropyridin-2-yl)benzenesulfonamide] | 4290 | 4860 | 1300 | 9000 | 259
8 | C[C@H](Nc1cc(F)c(S(=O)(=O)Nc2nccs2)cc1F)c1ccccc1F [Example 25, (S)-2,5-difluoro-4-((1-(2-fluorophenyl)ethyl)amino)-N-(thiazol-2-yl)benzenesulfonamide] | 1870 | 10300 | 175 | 2520 | 57
9 | C[C@H](Oc1cc(F)c(S(=O)(=O)Nc2nccs2)cc1F)c1ccccc1F [Example 26, (S)-2,5-difluoro-4-(1-(2-fluorophenyl)ethoxy)-N-(thiazol-2-yl)benzenesulfonamide] | 4740 | 3450 | 742 | 6750 | 113
10 | C[C@H](Nc1cc(F)c(S(=O)(=O)Nc2nccs2)c(F)c1)c1ccccc1F [Example 27, (S)-2,6-difluoro-4-((1-(2-fluorophenyl)ethyl)amino)-N-(thiazol-2-yl)benzenesulfonamide] | 476 | 8490 | 69 | 112 | 12
11 | CC[C@@H](Nc1ccc(S(=O)(=O)Nc2ncns2)cc1Cl)c1ccccc1 [Example 31, (R)-3-chloro-4-((1-phenylpropyl)amino)-N-(1,2,4-thiadiazol-5-yl)benzenesulfonamide] | 6170 | 16900 | 917 | 10000 | 118
12 | CC[C@@H](Nc1cc(F)c(S(=O)(=O)Nc2nccs2)cc1Cl)c1ccccc1 [Example 39, (R)-5-chloro-2-fluoro-4-((1-phenylpropyl)amino)-N-(thiazol-2-yl)benzenesulfonamide] | 2350 | 6810 | 791 | 1850 | 285
13 | CC[C@H](Nc1cc(F)c(S(=O)(=O)Nc2nccs2)cc1Cl)c1ccccc1 [Example 40, (S)-5-chloro-2-fluoro-4-((1-phenylpropyl)amino)-N-(thiazol-2-yl)benzenesulfonamide] | 637 | 7900 | 123 | 182 | 24
14 | O=S(=O)(Nc1nccs1)c1cc(Cl)c(NC(CC(F)(F)F)c2ccccc2)cc1F (stereo not shown) [Example 41, 5-chloro-2-fluoro-N-(thiazol-2-yl)-4-((3,3,3-trifluoro-1-phenylpropyl)amino)benzenesulfonamide] | 364 | 11800 | 70 | 31 | 10
15 | C[C@H](Nc1cc(F)c(S(=O)(=O)Nc2nccs2)cc1Cl)C1CCCCC1 [Example 42, (S)-5-chloro-4-((1-cyclohexylethyl)amino)-2-fluoro-N-(thiazol-2-yl)benzenesulfonamide] | 5650 | 14400 | 3030 | 6770 | 305
16 | O=S(=O)(Nc1nccs1)c1cc(Cl)c(NC2(c3ccccc3)CC2)cc1F [Example 43, 5-chloro-2-fluoro-4-((1-phenylcyclopropyl)amino)-N-(thiazol-2-yl)benzenesulfonamide] | 2140 | 11100 | 191 | 4100 | 28
17 | O=S(=O)(Nc1nccs1)c1cc(Cl)c(NC2(c3ccc(F)cc3)CC2)cc1F [Example 44, 5-chloro-2-fluoro-4-((1-(4-fluorophenyl)cyclopropyl)amino)-N-(thiazol-2-yl)benzenesulfonamide] | 1270 | 30000 | 347 | 2090 | 130
18 | CC[C@H](Nc1cc(F)c(S(=O)(=O)Nc2nccs2)cc1Cl)c1ccccc1F [Example 47, (S)-5-chloro-2-fluoro-4-((1-(2-fluorophenyl)propyl)amino)-N-(thiazol-2-yl)benzenesulfonamide] | 816 | 6520 | 89 | 114 | 10
19 | C[C@H](Nc1cc(F)c(S(=O)(=O)Nc2nccs2)cc1Cl)c1cccc(F)c1 [Example 49, (S)-5-chloro-2-fluoro-4-((1-(3-fluorophenyl)ethyl)amino)-N-(thiazol-2-yl)benzenesulfonamide] | 888 | 4750 | 232 | 260 | 19
20 | CC[C@H](Nc1cc(F)c(S(=O)(=O)Nc2nccs2)cc1Cl)c1ccccc1C [Example 54, (S)-5-chloro-2-fluoro-N-(thiazol-2-yl)-4-((1-(o-tolyl)propyl)amino)benzenesulfonamide] | 3240 | 13500 | 265 | 1020 | 25
21 | CC(Cc1cccnc1)Nc1cc(F)c(S(=O)(=O)Nc2nccs2)cc1Cl (stereo not shown) [Example 56, 5-chloro-2-fluoro-4-((1-(pyridin-3-yl)propan-2-yl)amino)-N-(thiazol-2-yl)benzenesulfonamide] | 4030 | 30000 | 949 | 1420 | 292
22 | O=S(=O)(Nc1cccc(F)n1)c1cc(Cl)c(NCc2cccc3ccncc23)cc1F [Example 62, 5-chloro-2-fluoro-N-(6-fluoropyridin-2-yl)-4-((isoquinolin-8-ylmethyl)amino)benzenesulfonamide] | 17300 | 30000 | 138 | 3100 | 52
23 | CN(C)CC(Nc1cc(F)c(S(=O)(=O)Nc2nccs2)cc1Cl)c1ccccc1 (stereo not shown) [Example 63, 5-Chloro-4-((2-(dimethylamino)-1-phenylethyl)amino)-2-fluoro-N-(thiazol-2-yl)benzenesulfonamide 2,2,2-trifluoroacetate] | 14100 | 30000 | 392 | 10000 | 66
24 | CN(C)C[C@@H](Nc1cc(F)c(S(=O)(=O)Nc2nccs2)cc1Cl)c1ccccc1 [Example 64, (S)-5-chloro-4-((2-(dimethylamino)-1-phenylethyl)amino)-2-fluoro-N-(thiazol-2-yl)benzenesulfonamide 2,2,2-trifluoroacetate] | 14500 | 30000 | 197 | 10000 | 85
25 | CN(C)C[C@H](Nc1cc(F)c(S(=O)(=O)Nc2nccs2)cc1Cl)c1ccccc1 [Example 65, (R)-5-chloro-4-((2-(dimethylamino)-1-phenylethyl)amino)-2-fluoro-N-(thiazol-2-yl)benzenesulfonamide 2,2,2-trifluoroacetate] | 2230 | 30000 | 1020 | 10000 | 87
26 | O=S(=O)(Nc1nccs1)c1cc(Cl)c(N[C@@H](CN2CCC2)c2ccccc2)cc1F [Example 66, (R)-4-((2-(azetidin-1-yl)-1-phenylethyl)amino)-5-chloro-2-fluoro-N-(thiazol-2-yl)benzenesulfonamide 2,2,2-trifluoroacetate] | 908 | 30000 | 1010 | 10000 | 1110
